# Laboratory results: article PMC4818699 (Angewandte Chemie (International ed. in English), 2016)
# Test system: MoeN5 (MoeN5-CS) (Streptomyces viridosporus)
# Experiment: X-ray crystal structure of the complex
# Type: binding
# Conditions: allylic site S1, near Asp-rich motifs; also PDB 5B03
# MoeN5 (MoeN5-CS) (Streptomyces viridosporus), sequence (A0A010 1-260): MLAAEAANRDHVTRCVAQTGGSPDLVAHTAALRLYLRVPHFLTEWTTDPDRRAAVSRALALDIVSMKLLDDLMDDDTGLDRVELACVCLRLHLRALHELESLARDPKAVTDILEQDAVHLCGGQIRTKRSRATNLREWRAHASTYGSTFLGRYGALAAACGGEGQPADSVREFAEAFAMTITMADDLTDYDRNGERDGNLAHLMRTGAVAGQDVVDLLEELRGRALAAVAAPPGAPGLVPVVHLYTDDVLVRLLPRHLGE
smiles,measurement,value
"CC(C)=CCC/C(C)=C/COP(=O)(O)OP(=O)(O)O [compound 6, geranyl diphosphate]",X-ray crystal structure of the complex,GPP binds to MoeN5-CS close to the Asp-rich domains
